Assay results taken from PubChem BioAssay AID1417 (Emory University Molecular Libraries Screening Center, 2008).

molecular target: Induced myeloid leukemia cell differentiation protein Mcl-1 (Homo sapiens) (UniProt Q07820); assay: Mcl-1 Noxa peptide disruption concentration-response – biochemical, TR-FRET, dose response (AID 1417); details: Mcl-1/Noxa peptide interaction, cell-free TR-FRET (terbium/rhodamine), 2 h; measured here: absolute IC50
Sequence (Q07820 whole entry, looked up): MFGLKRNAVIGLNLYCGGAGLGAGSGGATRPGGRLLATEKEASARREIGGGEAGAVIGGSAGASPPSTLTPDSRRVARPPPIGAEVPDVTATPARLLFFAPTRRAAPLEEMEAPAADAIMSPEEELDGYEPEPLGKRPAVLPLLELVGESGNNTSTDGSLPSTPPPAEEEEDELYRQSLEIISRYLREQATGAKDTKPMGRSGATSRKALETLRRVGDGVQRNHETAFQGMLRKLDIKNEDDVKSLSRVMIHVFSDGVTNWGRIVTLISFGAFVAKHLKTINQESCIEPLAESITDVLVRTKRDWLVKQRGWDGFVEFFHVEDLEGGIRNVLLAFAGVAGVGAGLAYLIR

`O=C(N/N=C/c1ccc(O)c(O)c1O)/C(=C/c1ccc([N+](=O)[O-])cc1)NC(=O)c1ccccc1` and `CCn1c(C)nc2cc(C(=O)N/N=C/c3ccc(O)c(O)c3O)ccc21` cannot be ordered by IC50: less than 0.4 µM for the first, less than 0.4 µM for the second.

First: CC1=NN(c2cccc(C(=O)O)c2)C(=O)/C1=C\C=C\c1ccco1
Second: COc1ccc(N=C2NC(=O)/C(=C\C=C\c3ccco3)S2)cc1
The IC50 of the first is 3-fold higher: 4.5 µM for the first, 1.48 µM for the second. The second is the more potent here.

Going from `Cc1sc(-n2c(C)cc(/C=C3\SC(=S)NC3=O)c2C)c(C#N)c1C` to `O=C1NC(=O)/C(=C\c2ccc(O)cc2O)S1`, the IC50 falls from 4.07 µM to less than 0.4 µM. The second is the more potent here.

Going from `O=C(OCC1O[C@@H](OC(=O)c2cc(O)c(O)c(O)c2)[C@@H](OC(=O)c2cc(O)c(O)c(O)c2)[C@@H](OC(=O)c2cc(O)c(O)c(O)c2)[C@@H]1OC(=O)c1cc(O)c(O)c(O)c1)c1cc(O)c(O)c(O)c1` (some centres undefined) to `Cc1ccc(C(=O)COC(=O)CNC(=O)c2ccc(N3C(=O)c4ccccc4C3=O)cc2)cc1C`, the IC50 rises from less than 0.4 µM to greater than 54 µM. The first is the more potent here.

`S=c1[nH]nc(-c2cc(-c3ccccc3)n[nH]2)n1/N=C/c1c2ccccc2cc2ccccc12` and `O=c1c2c3nc4ccccc4nc3n(Cc3ccccc3)c2ncn1Cc1ccco1` cannot be ordered by IC50: greater than 54 µM for the first, greater than 54 µM for the second.

`O=C(O)c1cccc(-c2ccc(/C=c3/sc4nc5ccccc5n4c3=O)o2)c1` and `O=C(O)c1cc(-c2ccc(/C=C3/SC(=S)N(Cc4ccccc4)C3=O)o2)ccc1Cl` are within 1.5-fold of each other in IC50: 1.02 µM for the first, 1.51 µM for the second.

Going from `Cc1ccc(N=Nc2ccc(O)c(/C=N\NC(=O)c3ccc(N)cc3)c2)cc1C` to `O=C(N/N=C/c1ccc(-c2ccccc2C(=O)O)o1)c1cccs1`, the IC50 rises from 2.24 µM to 7.88 µM (3.5-fold).

`COc1ccc(C(c2c(O)cc(C)oc2=O)c2c(O)cc(C)oc2=O)cc1` and `Cc1ccc(-n2nc(C)cc2NC(=O)COc2cc(C)cc3oc(=O)c4c(c23)CCC4)cc1` cannot be ordered by IC50: greater than 54 µM for the first, greater than 54 µM for the second.

`O=[N+]([O-])C(=c1ccc2c(c1)N1C3=C(CCCC3)CC3CCCCC31N=2)[N+](=O)[O-]` (centres undefined) and `COc1cc(C(c2nnnn2C2CCCC2)N2CCc3ccccc3C2)ccc1O` (centres undefined) cannot be ordered by IC50: less than 0.4 µM for the first, less than 0.4 µM for the second.

Compared with `COc1ccccc1/C=c1\sc2nc(-c3ccco3)nn2c1=O`, `Cc1csc(NC(=O)c2cc(-c3ccco3)nc3ccccc23)n1` is 2.8-fold lower in IC50: 8.18 µM for the first, 2.91 µM for the second.

Going from `CC(/C=C/c1ccco1)=N\NC(=O)c1cc(C)[nH]n1` to `CC1C(=O)NN=C1C(=O)N/N=C\c1ccc(O)cc1O` (centres undefined), the IC50 falls from 5.64 µM to less than 0.4 µM. The second is the more potent here.

First: Cc1ccc(-c2cc(C(=O)NCCCn3ccnc3)c3cc(Br)ccc3n2)o1
Second: CCNC(=O)COC(=O)c1cc(-c2ccco2)nc2ccccc12
The IC50 of the first is higher: greater than 54 µM for the first, 1.81 µM for the second.

First: N=C1S/C(=C\c2ccc(-c3cccc(Cl)c3)o2)C(=O)N1c1nccs1
Second: Cc1cc(C)c2oc(C(=O)Nc3ccc(S(=O)(=O)Nc4nccs4)cc3)cc(=O)c2c1
The IC50 of the first is 5.3-fold lower: 0.861 µM for the first, 4.58 µM for the second. The first is the more potent here.

First: Cc1cc(=O)n2[nH]c(-c3ccsc3-n3c(C)ccc3C)cc2n1
Second: Cc1cc(C)c(S(=O)(=O)/N=C2/C=C(Sc3ncn[nH]3)C(=O)c3ccccc32)cc1C
The IC50 of the first is higher: 2.89 µM for the first, less than 0.4 µM for the second.

Compared with `COc1ccccc1Nc1nc(-c2sc(NC(=O)c3ccc([N+](=O)[O-])cc3)nc2C)cs1`, `N=c1oc2cc(O)ccc2cc1C(=O)Nc1nc2ccccc2s1` is higher in IC50: less than 0.4 µM for the first, 2.93 µM for the second. The first is the more potent here.

`O=C1N=c2ccc(Br)cc2=C1c1sc(=S)n(NS(=O)(=O)c2ccccc2)c1O` and `Cc1ccc(O)c(NC2=C(Cl)C(=O)N(Cc3ccccc3)C2=O)c1` cannot be ordered by IC50: greater than 54 µM for the first, greater than 54 µM for the second.

`COC(=O)Nc1ccc(S(=O)(=O)NCc2ccccn2)cc1` and `CCN(CC)c1ccc(NC(=O)c2ccccc2OCC(=O)OC)cc1` cannot be ordered by IC50: greater than 54 µM for the first, greater than 54 µM for the second.

Going from `Cc1oc(-c2ccc(Cl)cc2)cc1-c1nn2c(-c3ccoc3C)nnc2s1` to `Nc1ccc2nc(-c3ccc(Cl)cc3)[nH]c2c1`, the IC50 falls from greater than 54 µM to 30.5 µM.

`O=C(O)CSc1cc(C(=O)c2ccccc2O)cn2c(=O)c3c4c(sc3nc12)CCCC4` and `Cc1cc(C(=O)OCC(=O)Nc2sc3c(c2C#N)CCC(C)C3)c2ccccc2n1` (centres undefined) are within 1.5-fold of each other in IC50: 3.38 µM for the first, 4.27 µM for the second.

First: CN1CCc2cccc3c2[C@@H]1Cc1ccc(O)c(O)c1-3
Second: Oc1ccc(-c2cn3c(n2)SCC3)cc1O
The IC50 of the first is 2.3-fold lower: 0.827 µM for the first, 1.94 µM for the second.

First: COC(=O)C1=Nc2ccccc2/C1=C\c1c(O)n(-c2ccc(Br)cc2)c(=O)[nH]c1=O
Second: CN(C)c1ccc(NC(=O)Cn2ncn3c(cc4ccccc43)c2=O)cc1
The IC50 of the first is 2.2-fold higher: 7.49 µM for the first, 3.42 µM for the second. The second is the more potent here.

Going from `CC(C)c1nc2sc3c(=O)[nH]c(=S)[nH]c3c2c2c1CCC2` to `O=C1CCCCC1C(=O)c1ccccc1` (centres undefined), the IC50 rises from 7.39 µM to greater than 54 µM.

First: Nc1cc2c(cc1[N+](=O)[O-])OCO2
Second: O=C(N/N=C/c1ccncc1)c1cc([N+](=O)[O-])cc([N+](=O)[O-])c1O
The IC50 of the first is 2.8-fold higher: 6.98 µM for the first, 2.49 µM for the second. The second is the more potent here.

Going from `COc1ccc(Cc2nnc(NC(=O)Cc3cccs3)s2)cc1` to `COc1ccc2nc(-c3ccco3)c(-c3ccco3)nc2c1`, the IC50 rises from less than 0.4 µM to 2.25 µM. The first is the more potent here.

Going from `CCc1ccc(NC(=O)N(CCN2CCOCC2)Cc2ccc3c(c2)CCCN3CC)cc1` to `CCCCN(CC)CCNc1c(N2CCN(C(=O)OCC)CC2)c(=O)c1=O`, the IC50 falls from greater than 54 µM to 2.17 µM.

Compared with `CC1=NN(C(N)=S)C(=O)C1N=Nc1ccc(O)cc1` (centres undefined), `O=C(O)Cc1c[nH]c2cccc(O)c12` is 14-fold lower in IC50: 11.2 µM for the first, 0.81 µM for the second. The second is the more potent here.

First: O=C(CNc1ccc2ccccc2c1)N/N=C/C=C/c1cccc([N+](=O)[O-])c1
Second: CC(C)CC1NC(=O)N(CC(=O)N2c3ccccc3NC(=O)C2(C)C)C1=O (centres undefined)
The IC50 of the first is lower: 7.27 µM for the first, greater than 54 µM for the second. The first is the more potent here.
